Experimental data from ChEMBL document CHEMBL3885861, “Open TG-GATES”.

Organism: Rattus norvegicus
Assay: Open TG-GATES - Regimen: Single
Assay type: toxicity, organism-based, Sprague-Dawley
Parameters: regimen Single, gender Male, age 6 weeks
Conditions: in vivo, po, 300 mg/kg, route gavage, dose level Low; for APTT / Bas / Eos / Fbg / Hb / Ht / Lym / MCH / MCHC / MCV / Mono / Neu / PT / Plat / RBC / Ret / WBC: tissue Blood; for KIDNEY_L / KIDNEY_R / KIDNEY_TOTAL: tissue Kidney; for LIVER: tissue Liver; for A/G / ALP / ALT / AST / BUN / CRE / Ca / Cl / DBIL / GLC / IP / K / LDH / Na / PL / RALB / TBIL / TC / TG / TP / gamma-GTP: tissue Plasma

Structure (SMILES): COc1ccc(O)c(C(C)(C)C)c1.COc1ccc(O)cc1C(C)(C)C [BUTYLATED HYDROXYANISOLE]
- TERMINAL_BW (3 h): 204.6 g
- APTT (3 h): 16.4 s
- Bas (3 h): 0.2%
- Eos (3 h): 0.6%
- Fbg (3 h): 281.2 mg/dL
- Hb (3 h): 13.8 g/dL
- Ht (3 h): 39.9%
- Lym (3 h): 75%
- MCH (3 h): 21.7 pg
- MCHC (3 h): 34.5%
- MCV (3 h): 63.1 fL
- Mono (3 h): 2.5%
- Neu (3 h): 20.7%
- PT (3 h): 12 s
- Plat (3 h): 133.9 x10_4/uL
- RBC (3 h): 633.4 x10_4/ul
- Ret (3 h): 8.1%
- WBC (3 h): 97.5 x10_2/uL
- KIDNEY_L (3 h): 0.9 g
- KIDNEY_R (3 h): 0.9 g
- KIDNEY_TOTAL (3 h): 1.8 g
- LIVER (3 h): 8.5 g
- A/G (3 h): 0.8
- ALP (3 h): 1752.8 IU/L
- ALT (3 h): 41.8 IU/L
- AST (3 h): 75.4 IU/L
- BUN (3 h): 10.2 mg/dL
- CRE (3 h): 0.2 mg/dL
- Ca (3 h): 11.3 mg/dL
- Cl (3 h): 107.8 meq/L
- DBIL (3 h): 0.052 mg/dL
- GLC (3 h): 173.2 mg/dL
- IP (3 h): 9.1 mg/dL
- K (3 h): 3.9 meq/L
- LDH (3 h): 75.6 IU/L
- Na (3 h): 141.8 meq/L
- PL (3 h): 154.4 mg/dL
- RALB (3 h): 2.7 g/dL
- TBIL (3 h): 0.082 mg/dL
- TC (3 h): 80.8 mg/dL
- TG (3 h): 149.4 mg/dL
- TP (3 h): 5.8 g/dL
- gamma-GTP (3 h): 1 IU/L
- TERMINAL_BW (6 h): 202.1 g
- APTT (6 h): 16.2 s
- Bas (6 h): 0.2%
- Eos (6 h): 0.7%
- Fbg (6 h): 257.2 mg/dL
- Hb (6 h): 13.3 g/dL
- Ht (6 h): 39.1%
- Lym (6 h): 72%
- MCH (6 h): 21.2 pg
- MCHC (6 h): 33.9%
- MCV (6 h): 62.4 fL
- Mono (6 h): 2.5%
- Neu (6 h): 23.7%
- PT (6 h): 12.3 s
- Plat (6 h): 131.2 x10_4/uL
- RBC (6 h): 627.4 x10_4/ul
- Ret (6 h): 7.7%
- WBC (6 h): 91.5 x10_2/uL
- KIDNEY_L (6 h): 0.9 g
- KIDNEY_R (6 h): 0.9 g
- KIDNEY_TOTAL (6 h): 1.8 g
- LIVER (6 h): 7.9 g
- A/G (6 h): 0.9
- ALP (6 h): 1829.2 IU/L
- ALT (6 h): 38 IU/L
- AST (6 h): 72.8 IU/L
- BUN (6 h): 9.4 mg/dL
- CRE (6 h): 0.2 mg/dL
- Ca (6 h): 11.1 mg/dL
- Cl (6 h): 107.8 meq/L
- DBIL (6 h): 0.03 mg/dL
- GLC (6 h): 172.4 mg/dL
- IP (6 h): 10.3 mg/dL
- K (6 h): 4.2 meq/L
- LDH (6 h): 60.2 IU/L
- Na (6 h): 143.2 meq/L
- PL (6 h): 134.4 mg/dL
- RALB (6 h): 2.6 g/dL
- TBIL (6 h): 0.074 mg/dL
- TC (6 h): 75 mg/dL
- TG (6 h): 65.8 mg/dL
- TP (6 h): 5.7 g/dL
- gamma-GTP (6 h): 1.4 IU/L
- TERMINAL_BW (9 h): 199.4 g
- APTT (9 h): 16.9 s
- Bas (9 h): 0.2%
- Eos (9 h): 0.7%
- Fbg (9 h): 273.6 mg/dL
- Hb (9 h): 13.4 g/dL
- Ht (9 h): 39.1%
- Lym (9 h): 76.3%
- MCH (9 h): 20.7 pg
- MCHC (9 h): 34.3%
- MCV (9 h): 60.5 fL
- Mono (9 h): 1.9%
- Neu (9 h): 20.1%
- PT (9 h): 13.1 s
- Plat (9 h): 145.3 x10_4/uL
- RBC (9 h): 647.4 x10_4/ul
- Ret (9 h): 7.4%
- WBC (9 h): 69.4 x10_2/uL
- KIDNEY_L (9 h): 0.9 g
- KIDNEY_R (9 h): 0.9 g
- KIDNEY_TOTAL (9 h): 1.7 g
- LIVER (9 h): 7.5 g
- A/G (9 h): 0.8
- ALP (9 h): 1688.6 IU/L
- ALT (9 h): 30.6 IU/L
- AST (9 h): 66.4 IU/L
- BUN (9 h): 8.2 mg/dL
- CRE (9 h): 0.2 mg/dL
- Ca (9 h): 10.8 mg/dL
- Cl (9 h): 108 meq/L
- DBIL (9 h): 0.026 mg/dL
- GLC (9 h): 163.8 mg/dL
- IP (9 h): 10.1 mg/dL
- K (9 h): 4 meq/L
- LDH (9 h): 48.4 IU/L
- Na (9 h): 142.8 meq/L
- PL (9 h): 134.6 mg/dL
- RALB (9 h): 2.6 g/dL
- TBIL (9 h): 0.088 mg/dL
- TC (9 h): 77.4 mg/dL
- TG (9 h): 66 mg/dL
- TP (9 h): 5.6 g/dL
- gamma-GTP (9 h): 1.4 IU/L
- TERMINAL_BW (24 h): 215.1 g
- APTT (24 h): 15.4 s
- Bas (24 h): 0.3%
- Eos (24 h): 0.7%
- Fbg (24 h): 256.6 mg/dL
- Hb (24 h): 13 g/dL
- Ht (24 h): 38%
- Lym (24 h): 82.1%
- MCH (24 h): 21.3 pg
- MCHC (24 h): 34.1%
- MCV (24 h): 62.3 fL
- Mono (24 h): 2.3%
- Neu (24 h): 13.9%
- PT (24 h): 12 s
- Plat (24 h): 142.8 x10_4/uL
- RBC (24 h): 610.6 x10_4/ul
- Ret (24 h): 6.9%
- WBC (24 h): 97.1 x10_2/uL
- KIDNEY_L (24 h): 0.9 g
- KIDNEY_R (24 h): 0.9 g
- KIDNEY_TOTAL (24 h): 1.8 g
- LIVER (24 h): 9.6 g
- A/G (24 h): 0.9
- ALP (24 h): 1667 IU/L
- ALT (24 h): 47.2 IU/L
- AST (24 h): 79 IU/L
- BUN (24 h): 15 mg/dL
- CRE (24 h): 0.2 mg/dL
- Ca (24 h): 11.4 mg/dL
- Cl (24 h): 106.4 meq/L
- DBIL (24 h): 0.028 mg/dL
- GLC (24 h): 166.4 mg/dL
- IP (24 h): 7.8 mg/dL
- K (24 h): 4.2 meq/L
- LDH (24 h): 63 IU/L
- Na (24 h): 143.2 meq/L
- PL (24 h): 135.2 mg/dL
- RALB (24 h): 2.7 g/dL
- TBIL (24 h): 0.078 mg/dL
- TC (24 h): 78.2 mg/dL
- TG (24 h): 110.2 mg/dL
- TP (24 h): 5.7 g/dL
- gamma-GTP (24 h): 1 IU/L
